This is an account of results in patent US9708286B2, “Ingenol-3-acylates III and ingenol-3-carbamates” (LEO Laboratories Limited, priority 2010, dated 2017).

Structures are written as SMILES. Where two headings read alike, the source gives them in different places.

What all share (format): cell-based
Experiment [1] has as its system PMN's (polymorphonuclear leukocytes). The experiment in a line: Neutrophil oxidative burst. Particulars: Leukocyte, 40 min, normalized to 5×10^−7 M PEP0005. The method in brief:
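Human buffy-coat neutrophils (2.5×10^5/well) in HBSS with 0.1% BSA, 5 mM glucose treated with compound premixed with 10 μM hydroethidine for 40 min at RT; fluorescence read at 485/579 nm. Normalized to 5×10^−7 M PEP0005; Rel EC50 is midway between fitted top and bottom, Abs EC50 gives 50% of PEP0005 maximum.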

The test system of experiment [2] is Primary human epidermal keratinocytes, HeKa. Briefly: HeKa cytokine release (IL-8). The settings on record: Homo sapiens, read-out: HeKa cytokine release (IL-8) Rel EC50 range. Put shortly: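 Seeded cells exposed to compound dilutions for 6 h at 37° C; IL-8 in supernatant quantified by MSD sandwich electrochemiluminescence immunoassay. Effects normalized to positive control (1.5×10^−7 M PEP0005), four-parameter sigmoidal fit; Rel EC50 is concentration midway between fitted top and bottom.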

In experiment [3] the test system is HeLa cells. The experiment in a line: Necrosis assay. The settings on record: Homo sapiens, 0.5 h, read-out: HeLa necrosis EC50 range. The method in brief: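 HeLa cells treated with compound at 10 μM to 400 μM (final) for 30 min at 37° C., viability then measured by PrestoBlue fluorescence (ex 535/em 630 nm). Normalized to 1% DMSO and 400 μM ingenol mebutate controls; AbsEC50 from four-parameter sigmoidal fit.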

The mark [4] stands for this setting: read-out: Neutrophil oxidative burst Rel EC50 range, PMN from buffy coats, 40 min at RT, hydroethidine fluorescence.

For the molecule `CC1=C[C@]23C(=O)[C@@H](C=C(CO)[C@@H](O)[C@]2(O)[C@H]1OC(=O)N(C)[C@@H](C)c1ccccc1)[C@H]1[C@@H](C[C@H]3C)C1(C)C` [Compound 716, Ingenol 3-(N-methyl-N—((S)-1-phenethyl)-carbamate)], the EC50 in experiment [1] (setting [4]) was 20 to 100 nM; in experiment [2] (HEKa, 6 h), below 20 nM; in experiment [3] (HeLa) it was below 150000 nM.

With `CC1=C[C@]23C(=O)[C@@H](C=C(CO)[C@@H](O)[C@]2(O)[C@H]1OC(=O)N(C)CC1CC1)[C@H]1[C@@H](C[C@H]3C)C1(C)C` [Compound 717, Ingenol 3-(N-methyl-N-(cyclopropylmethyl)-carbamate)], the EC50 in experiment [1] (setting [4]) was below 20 nM; in experiment [2] (HEKa, 6 h), below 20 nM; in experiment [3] (HeLa), above 350000 nM.

`CC1=C[C@]23C(=O)[C@@H](C=C(CO)[C@@H](O)[C@]2(O)[C@H]1OC(=O)N(C)c1cccc(F)c1)[C@H]1[C@@H](C[C@H]3C)C1(C)C` [Compound 718, Ingenol 3-(N-(3-fluoro-phenyl)-N-methyl-carbamate)]: the EC50 was below 20 nM in experiment [1] (setting [4]); below 20 nM in experiment [2] (HEKa, 6 h); 150000 to 350000 nM in experiment [3] (HeLa).

Take `CC1=C[C@]23C(=O)[C@@H](C=C(CO)[C@@H](O)[C@]2(O)[C@H]1OC(=O)N(C)c1cc(C)n(C)n1)[C@H]1[C@@H](C[C@H]3C)C1(C)C` [Compound 721, Ingenol 3-(N-(1,5-dimethylpyrazol-3-yl)-N-methyl-carbamate)]: the EC50 is 20 to 100 nM in experiment [1] (setting [4]); 20 to 100 nM in experiment [2] (HEKa, 6 h); above 350000 nM in experiment [3] (HeLa).

Regarding `CC1=C[C@]23C(=O)[C@@H](C=C(CO)[C@@H](O)[C@]2(O)[C@H]1OC(=O)N(C)C1CCCC1)[C@H]1[C@@H](C[C@H]3C)C1(C)C` [Compound 722, Ingenol 3-(N-cyclopentyl-N-methyl-carbamate)], the EC50 is below 20 nM in experiment [1] (setting [4]); 20 to 100 nM in experiment [2] (HEKa, 6 h); above 350000 nM in experiment [3] (HeLa).

Consider `CC1=C[C@]23C(=O)[C@@H](C=C(CO)[C@@H](O)[C@]2(O)[C@H]1OC(=O)N(C)C1CC1)[C@H]1[C@@H](C[C@H]3C)C1(C)C` [Compound 723, Ingenol 3-(N-cyclopropyl-N-methyl-carbamate)], for which the EC50 is below 20 nM in experiment [1] (setting [4]); 20 to 100 nM in experiment [2] (HEKa, 6 h); above 350000 nM in experiment [3] (HeLa).

As for `CC1=C[C@]23C(=O)[C@@H](C=C(CO)[C@@H](O)[C@]2(O)[C@H]1OC(=O)N1CCCc2ccccc21)[C@H]1[C@@H](C[C@H]3C)C1(C)C` [Compound 726, Ingenol 3-(3,4-dihydro-2H-quinoline-1-carboxylate)], the EC50 in experiment [1] (setting [4]) is 20 to 100 nM; in experiment [2] (HEKa, 6 h) it was below 20 nM; in experiment [3] (HeLa), below 150000 nM.

Regarding `CC1=C[C@]23C(=O)[C@@H](C=C(CO)[C@@H](O)[C@]2(O)[C@H]1OC(=O)N1CCc2ccccc21)[C@H]1[C@@H](C[C@H]3C)C1(C)C` [Compound 727, Ingenol 3-(indoline-1-carboxylate)], the EC50 was below 20 nM in experiment [1] (setting [4]); below 20 nM in experiment [2] (HEKa, 6 h); below 150000 nM in experiment [3] (HeLa).

As to `CC1=C[C@]23C(=O)[C@@H](C=C(CO)[C@@H](O)[C@]2(O)[C@H]1OC(=O)N(C)c1ccc(Cl)cc1)[C@H]1[C@@H](C[C@H]3C)C1(C)C` [Compound 729, Ingenol 3-(N-(4-chloro-phenyl)-N-methyl-carbamate)], the EC50 in experiment [1] (setting [4]) was below 20 nM; in experiment [2] (HEKa, 6 h) it was below 20 nM; in experiment [3] (HeLa) it was 150000 to 350000 nM.

Take `CC1=C[C@]23C(=O)[C@@H](C=C(CO)[C@@H](O)[C@]2(O)[C@H]1OC(=O)N(C)c1ccccc1C)[C@H]1[C@@H](C[C@H]3C)C1(C)C` [Compound 732, Ingenol 3-(N-methyl-N-(2-methyl-phenyl)-carbamate)]: the EC50 in experiment [1] (setting [4]) was below 20 nM; in experiment [2] (HEKa, 6 h), below 20 nM; in experiment [3] (HeLa), 150000 to 350000 nM.

In the case of `CCN(C(=O)O[C@H]1C(C)=C[C@]23C(=O)C(C=C(CO)[C@@H](O)[C@]12O)[C@H]1[C@@H](C[C@H]3C)C1(C)C)c1ccccc1` [Compound 734, Ingenol 3-(N-ethyl-N-phenyl-carbamate)], the EC50 in experiment [1] (setting [4]) is 20 to 100 nM; in experiment [2] (HEKa, 6 h), below 20 nM; in experiment [3] (HeLa), 150000 to 350000 nM.

Turning to `CC1=C[C@]23C(=O)[C@@H](C=C(CO)[C@@H](O)[C@]2(O)[C@H]1OC(=O)N1CC2CCC(CC2)C1)[C@H]1[C@@H](C[C@H]3C)C1(C)C` [Compound 736, Ingenol 3-(3-azabicyclo[3.2.2]nonane-3-carboxylate)], the EC50 in experiment [1] (PMN from buffy coats, 40 min at RT, hydroethidine fluorescence, read-out: Neutrophil oxidative burst Rel EC50 range) is below 20 nM; in experiment [2] (HeKa cells, 6 h at 37° C., IL-8 by MSD assay, normalized to 1.5×10^−7 M PEP0005) it was below 20 nM; in experiment [3] (HeLa cells, 30 min at 37° C., PrestoBlue, AbsEC50, normalized to 400 μM ingenol mebutate), 150000 to 350000 nM.

`CC1=C[C@]23C(=O)[C@@H](C=C(CO)[C@@H](O)[C@]2(O)[C@H]1OC(=O)N1CCOc2ccccc21)[C@H]1[C@@H](C[C@H]3C)C1(C)C` [Compound 737, Ingenol 3-(2,3-dihydro-1,4-benzoxazine-4-carboxylate)]: the EC50 in experiment [1] (setting [4]) is below 20 nM; in experiment [2] (HEKa, 6 h), below 20 nM; in experiment [3] (HeLa), below 150000 nM.

Turning to `CC1=C[C@]23C(=O)[C@@H](C=C(CO)[C@@H](O)[C@]2(O)[C@H]1OC(=O)N(C)c1ccccc1F)[C@H]1[C@@H](C[C@H]3C)C1(C)C` [Compound 738, Ingenol 3-(N-(2-fluoro-phenyl)-N-methyl-carbamate)], the EC50 was below 20 nM in experiment [1] (setting [4]); 20 to 100 nM in experiment [2] (HEKa, 6 h); 150000 to 350000 nM in experiment [3] (HeLa).

In the case of `CC1=C[C@]23C(=O)[C@@H](C=C(CO)[C@@H](O)[C@]2(O)[C@H]1OC(=O)N1c2ccccc2OCC1C)[C@H]1[C@@H](C[C@H]3C)C1(C)C` (stereo partly drawn) [Compound 739, Ingenol 3-(3-methyl-2,3-dihydro-1,4-benzoxazine-4-carboxylate)], the EC50 was below 20 nM in experiment [1] (setting [4]); below 20 nM in experiment [2] (HEKa, 6 h); below 150000 nM in experiment [3] (HeLa).

In the case of `CC1=C[C@]23C(=O)[C@@H](C=C(CO)[C@@H](O)[C@]2(O)[C@H]1OC(=O)N(C)c1cccc(C)c1)[C@H]1[C@@H](C[C@H]3C)C1(C)C` [Compound 743, Ingenol 3-(N-methyl-N-(3-methyl-phenyl)-carbamate)], the EC50 in experiment [1] (setting [4]) was below 20 nM; in experiment [2] (HEKa, 6 h), below 20 nM; in experiment [3] (HeLa), 150000 to 350000 nM.

On to `CC1=C[C@]23C(=O)[C@@H](C=C(CO)[C@@H](O)[C@]2(O)[C@H]1OC(=O)N1CCNc2ccccc21)[C@H]1[C@@H](C[C@H]3C)C1(C)C` [Compound 744, Ingenol 3-(3,4-dihydro-2H-quinoxaline-1-carboxylate)], for which the EC50 in experiment [1] (setting [4]) is 20 to 100 nM; in experiment [2] (HEKa, 6 h), 20 to 100 nM; in experiment [3] (HeLa), 150000 to 350000 nM.

With `CC1=C[C@]23C(=O)[C@@H](C=C(CO)[C@@H](O)[C@]2(O)[C@H]1OC(=O)N1Cc2ccccc2C1)[C@H]1[C@@H](C[C@H]3C)C1(C)C` [Compound 745, Ingenol 3-(isoindoline-2-carboxylate)], the EC50 in experiment [1] (setting [4]) is below 20 nM; in experiment [2] (HEKa, 6 h), below 20 nM; in experiment [3] (HeLa) it was 150000 to 350000 nM.

Turning to `CC1=C[C@]23C(=O)[C@@H](C=C(CO)[C@@H](O)[C@]2(O)[C@H]1OC(=O)N(C)CC1CCOCC1)[C@H]1[C@@H](C[C@H]3C)C1(C)C` [Compound 746, Ingenol 3-(N-methyl-N-(tetrahydropyran-4-ylmethyl)-carbamate)], the EC50 in experiment [1] (setting [4]) was 20 to 100 nM; in experiment [2] (HEKa, 6 h), above 100 nM; in experiment [3] (HeLa), above 350000 nM.

In the case of `CC1=C[C@]23C(=O)[C@@H](C=C(CO)[C@@H](O)[C@]2(O)[C@H]1OC(=O)N(C)C1CCOCC1)[C@H]1[C@@H](C[C@H]3C)C1(C)C` [Compound 747, Ingenol 3-(N-methyl-N-(tetrahydropyran-4-yl)-carbamate)], the EC50 in experiment [1] (setting [4]) was 20 to 100 nM; in experiment [2] (HEKa, 6 h), above 100 nM; in experiment [3] (HeLa) it was above 350000 nM.

`COc1cccc(N(C)C(=O)O[C@H]2C(C)=C[C@]34C(=O)[C@@H](C=C(CO)[C@@H](O)[C@]23O)[C@H]2[C@@H](C[C@H]4C)C2(C)C)c1` [Compound 748, Ingenol 3-(N-methyl-N-(3-methoxy-phenyl)-carbamate)]: the EC50 is below 20 nM in experiment [1] (setting [4]); 20 to 100 nM in experiment [2] (HEKa, 6 h); 150000 to 350000 nM in experiment [3] (HeLa).

With `CC1=C[C@]23C(=O)[C@@H](C=C(CO)[C@@H](O)[C@]2(O)[C@H]1OC(=O)N(C)c1nc(C)cs1)[C@H]1[C@@H](C[C@H]3C)C1(C)C` [Compound 752, Ingenol 3-(N-methyl-N-(4-methylthiazol-2-yl)-carbamate)], the EC50 was below 20 nM in experiment [1] (setting [4]); below 20 nM in experiment [2] (HEKa, 6 h); 150000 to 350000 nM in experiment [3] (HeLa).

As for `CC1=C[C@]23C(=O)[C@@H](C=C(CO)[C@@H](O)[C@]2(O)[C@H]1OC(=O)N(C)c1ccc(C#N)cc1)[C@H]1[C@@H](C[C@H]3C)C1(C)C` [Compound 753, Ingenol 3-(N-(4-cyano-phenyl)-N-methyl-carbamate)], the EC50 in experiment [1] (setting [4]) is 20 to 100 nM; in experiment [2] (HEKa, 6 h), 20 to 100 nM; in experiment [3] (HeLa) it was 150000 to 350000 nM.
